Measured values reported in PubChem BioAssay AID330 (DTP/NCI, 2004).
Values joined by “and” are separate entries in the source; they are usually repeats but may differ in a detail not shown here. Identical values can stand only once. Toxic doses and inconclusive results are not listed. How the source made its calls: active means survival T/C of 150% or more; inactive means T/C below 125% in these data.

Test system: P388 leukemia ip, CD2F1 mice, survival T/C
Experiment: NCI In Vivo Anticancer Drug Screen. Data for tumor model P388 Leukemia (intraperitoneal) in CD2F1 (CDF1) mice
Conditions: endpoint: median survival time, higher = longer survival
Summary of the method: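 Mice carrying the transplanted tumor received test compound or vehicle. Survival was recorded in each group, and the value is the treated-group measurement divided by that of the vehicle-treated control group.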

[1] = dose: 60.0 mg/kg/injection, schedule: Q01DX005 (ip), vehicle: saline
[2] = dose: 120.0 mg/kg/injection, schedule: Q01DX005 (ip), vehicle: saline
[3] = dose: 240.0 mg/kg/injection, schedule: Q01DX005 (ip), vehicle: saline
[4] = dose: 50.0 mg/kg/injection, schedule: Q01DX005 (ip), vehicle: saline with Tween-80
[5] = dose: 100.0 mg/kg/injection, schedule: Q01DX005 (ip), vehicle: saline with Tween-80
[6] = dose: 50.0 mg/kg/injection, schedule: Q01DX005 (ip), vehicle: Klucel (hydroxypropylcellulose) (HPC)
[7] = dose: 100.0 mg/kg/injection, schedule: Q01DX005 (ip), vehicle: Klucel (hydroxypropylcellulose) (HPC)
[8] = dose: 50.0 mg/kg/injection, schedule: Q01DX009 (ip), vehicle: Klucel (hydroxypropylcellulose) (HPC)
[9] = dose: 50.0 mg/kg/injection, schedule: Q01DX009 (ip), vehicle: saline
[10] = dose: 100.0 mg/kg/injection, schedule: Q01DX009 (ip), vehicle: saline
[11] = dose: 200.0 mg/kg/injection, schedule: Q01DX009 (ip), vehicle: saline
[12] = dose: 25.0 mg/kg/injection, schedule: Q01DX009 (ip), vehicle: Klucel (hydroxypropylcellulose) (HPC)
[13] = dose: 200.0 mg/kg/injection, schedule: Q01DX005 (ip), vehicle: Klucel (hydroxypropylcellulose) (HPC)

Measured: T/C

CCN(CC)CC(C)(C)C(=O)/C=C/c1ccc(Cl)c(Cl)c1
inactive: dose: 7.5 mg/kg/injection, schedule: Q01DX005 (ip), vehicle: saline 102 % of control | dose: 15.0 mg/kg/injection, schedule: Q01DX005 (ip), vehicle: saline 101 % of control | dose: 30.0 mg/kg/injection, schedule: Q01DX005 (ip), vehicle: saline 112 % of control | [1] 110 % of control | [2] 118 % of control | [3] 109 % of control

CCOC(=O)C1=C(C)O/C(=C\c2cccc(C(F)(F)F)c2)C1=O
inactive: [4] 108 % of control | [5] 109 % of control

C/C=C(\C)C(C)(C#N)Nc1ccccc1 (centres undefined)
inactive: dose: 200.0 mg/kg/injection, schedule: Q01DX009 (ip), vehicle: saline with Tween-80 90 % of control

CC(/C=N/Nc1ccccc1)=N\N=c1/scc(-c2ccc(Cl)cc2)n1-c1ccc(Cl)cc1
inactive: [4] 86 % of control | [5] 92 % of control | dose: 200.0 mg/kg/injection, schedule: Q01DX005 (ip), vehicle: saline with Tween-80 94 % of control

CCC1(c2ccnc3cc(Cl)ccc23)C(=O)NC(=O)NC1=O
inactive: dose: 50.0 mg/kg/injection, schedule: Q01DX009 (ip), vehicle: distilled water + alcohol 100 % of control | dose: 100.0 mg/kg/injection, schedule: Q01DX009 (ip), vehicle: distilled water + alcohol 98 % of control | dose: 200.0 mg/kg/injection, schedule: Q01DX009 (ip), vehicle: distilled water + alcohol 99 % of control

C=CCN(CC=C)P(=O)(N(CC=C)CC=C)N(CC=C)CC=C
inactive: [6] 99 % of control | [7] 99 % of control

Fc1ccc(CSC(=S)Nc2ccc(F)c(F)c2)cc1
inactive: [8] 111 % of control | [9] 87 % of control | [10] 107 % of control | [11] 108 % of control

CCCCN(CCC#N)c1ccc(/C=C/c2ccnc3ccccc23)cc1
inactive: [12] 96 % of control | [8] 96 % of control

O=C1C=C(N2CC2)c2ccccc2C1=O
inactive: dose: 6.25 mg/kg/injection, schedule: Q01DX009 (ip), vehicle: saline with Tween-80 118 % of control | dose: 6.25 mg/kg/injection, schedule: Q04DX003 (ip), vehicle: saline with Tween-80 110 % of control | dose: 8.33 mg/kg/injection, schedule: Q01DX009 (ip), vehicle: saline with Tween-80 118 % of control | dose: 12.5 mg/kg/injection, schedule: Q04DX003 (ip), vehicle: saline with Tween-80 120 % of control

CC(C)=CCC/C(C)=C/CC1=CC(=O)C=CC1=O
inactive: [12] 101 % of control | [8] 97 % of control | dose: 100.0 mg/kg/injection, schedule: Q01DX009 (ip), vehicle: Klucel (hydroxypropylcellulose) (HPC) 87 % of control

NC(=O)CSc1nnc2ccccn12
inactive: dose: 50.0 mg/kg/injection, schedule: Q04DX003 (ip), vehicle: saline 92 % of control | dose: 100.0 mg/kg/injection, schedule: Q04DX003 (ip), vehicle: saline 100 % of control | dose: 200.0 mg/kg/injection, schedule: Q04DX003 (ip), vehicle: saline 104 % of control

N#C/C(C(N)=O)=C1/C(=O)Nc2ccccc21
inactive: [6] 103 % of control | [7] 98 % of control | [13] 94 % of control

COC(c1cccc(C(OC)(C(F)(F)F)C(F)(F)F)c1)(C(F)(F)F)C(F)(F)F
inactive: dose: 25.0 mg/kg/injection, schedule: Q01DX005 (ip), vehicle: Klucel (hydroxypropylcellulose) (HPC) 101 % of control | [6] 96 % of control | [7] 103 % of control | [13] 90 % of control

CC(Cl)CN1COc2ccc3ccc4c(c3c2C1)CN(CC(C)Cl)CO4 (centres undefined)
inactive: [6] 106 % of control and 107 % of control and 117 % of control | [7] 107 % of control and 112 % of control and 123 % of control | [13] 117 % of control and 124 % of control | dose: 400.0 mg/kg/injection, schedule: Q01DX005 (ip), vehicle: Klucel (hydroxypropylcellulose) (HPC) 116 % of control

C=CC(C)n1ccnc1 (centres undefined)
inactive: [9] 101 % of control | [10] 97 % of control | [11] 102 % of control

CC1(C)OCC(N)[C@@H](O)CO1 (some centres undefined)
inactive: [1] 100 % of control | [2] 96 % of control | [3] 100 % of control

FC(F)(F)C1(C(F)(F)F)O[Te]2(OC(C(F)(F)F)(C(F)(F)F)c3ccccc32)c2ccccc21
inactive: dose: 80.0 mg/kg/injection, schedule: Q04DX002 (ip), vehicle: Klucel (hydroxypropylcellulose) (HPC) 96 % of control | dose: 160.0 mg/kg/injection, schedule: Q04DX002 (ip), vehicle: Klucel (hydroxypropylcellulose) (HPC) 102 % of control | dose: 320.0 mg/kg/injection, schedule: Q04DX002 (ip), vehicle: Klucel (hydroxypropylcellulose) (HPC) 105 % of control

C/C(=N\N(C)/C=N/S(C)(=O)=O)c1ccccc1
inactive: [6] 98 % of control | [7] 95 % of control | [13] 104 % of control

CC(=O)OC1C(C(O)CO)OC2OC(C)(C)OC21 (centres undefined)
inactive: [1] 100 % of control | [2] 105 % of control | [3] 96 % of control
